According to US20230322805A1, “NOVEL PYRIMIDODIAZEPINE DERIVATIVES OR USES THEREOF” (SPARK BIOPHARMA, INC., priority 2020, published 2023):
Where two headings read alike, the source gives them in different places.

Assays:
[1] = test system: DsRed-IRES-tau EGFP HEK293 cells; assay: Flow cytometry of DsRed-IRES-tau EGFP HEK293 cells (tau clearance); format: cell-based, human; conditions: 5 μM compound with 100 nM TG for 20 hours
Htt-Q74 = assay: Level of aggregation-prone mutant protein after treatment; format: cell-based; conditions: SB1617 treatment
[2] = Blood-brain barrier penetration test in male ICR mice; format: in vivo, mouse; conditions: for concentration at 0.5 h / concentration at 3 h: male, 5 mg/kg
Method: After intraperitoneal administration (5 mg/kg, 3.3 mL/kg) of the compound (SB1617, 5% DMSO/[…]) according to the present invention to CD-1 (ICR) male mice (7 weeks old, KOATECH, Korea), blood samples were collected using heparinized tubes at designated time points (0.5 and 3 hours) in the orbital venous plexus, mice were sacrificed, and brain tissues were harvested. Plasma and brain homogenate samples were analyzed with an LC-MS/MS analyzer (Agilent 1260, Agilent 6460). The proportion of the compound according to the invention (SB1617) in brain and plasma was calculated.
6-1. In order to evaluate the suitability of the compound (SB1617) according to this invention in vivo, pharmacokinetic properties and blood-brain barrier penetration properties were identified using male ICR mice according to the methods described in Examples 1-15 and 1-16.
In addition, as shown in FIG. 28 and Table 3, it was confirmed that at least 50% of SB1617 was detected in the brain compared to plasma.

[3] = test system: tau (Tau5, phospho S199, T231) in BiFC-tau Venus HEK293 cells; assay: Immunoblot of total tau and phospho-tau in HEK293 BiFC-tau cells; format: cell-based, human
Method: Cells were collected and lysed in modified radioimmunoprecipitation assay(RIPA) buffer 50 mM Tris-HCl, pH 7.8, […], 1% NP-40, 0.5% deoxycholate, 5 mM NaF, 2 mM Na3VO4, and 1× Protease Inhibitor Cocktail(Roche). The concentration of total protein in each lysate was then determined using a whole cell assay and Pierce BCA Protein Assay Kit (ThermoFisher Scientific). Centrifugation was performed at 200 g for 10 minutes at 4° C. for measurement. Equal amounts of each lysate were fractionated by PAGE, transferred to a PVDF membrane (Bio-Rad), and blocked with 2% bovine serum albumin (BSA, MP Biomedicals) in Tris Buffered Saline supplemented with Tween20 (TBST, Sigma) for 1 hour at room temperature.
Membranes were probed with protein-specific antibodies overnight at 4° C. The following day, membranes were washed three times in TBST and incubated with 2% BSA in TBST for 1 hour at room temperature with anti-rabbit or anti-mouse horseradish peroxidase secondary antibodies (Cell Signaling Technology). After washing, membranes were exposed to detection reagents (GE Healthcare) and quantified via chemiluminescence (Bio-Rad). […]

With `CN(Cc1ccc(Cl)cc1)c1ncnc2c1[C@@H]1OC[C@H](CN2)N1S(=O)(=O)c1ccc([N+](=O)[O-])cc1` [Compound 117] the EGFP-to-DsRed signal ratio [1] was “decreased”, the “mutation level of Htt-Q74” value (Htt-Q74) was “downregulated” and the Kp at 0.5 h ([2]; CD-1 (ICR), mouse, brain, ip, 0.5 h after I.P. 5 mg/kg, read-out: Brain/Plasma ratio) was 0.5 ± 0.14. The Kp at 3 h ([2]; CD-1 (ICR), mouse, brain, ip, 3 h after I.P. 5 mg/kg, read-out: Brain/Plasma ratio) was 0.66 ± 0.21, the Kp ([2]; CD-1 (ICR), mouse, in vivo, ip, I.P. 5 mg/kg, read-out: SB1617 detected in the brain compared to plasma) was at least 0.5 and the blood-brain barrier crossing ([2]; intraperitoneal injection) was “sufficient blood-brain barrier crossing”. It also gave a concentration at 0.5 h ([2]; CD-1 (ICR), mouse, in vivo, ip, 0.5 h after I.P. 5 mg/kg, read-out: Concentration, Brain tissue) of 421 ± 58.2 ng/mL, a concentration at 0.5 h ([2]; CD-1 (ICR), mouse, in vivo, ip, 0.5 h after I.P. 5 mg/kg, read-out: Concentration, Plasma) of 885 ± 187 ng/mL and a concentration at 3 h ([2]; CD-1 (ICR), mouse, in vivo, ip, 3 h after I.P. 5 mg/kg, read-out: Concentration, Brain tissue) of 55.9 ± 5 ng/mL. The concentration at 3 h ([2]; CD-1 (ICR), mouse, in vivo, ip, 3 h after I.P. 5 mg/kg, read-out: Concentration, Plasma) was 92.4 ± 29.8 ng/mL, the total tau level ([3]; 10 μM SB1617, 200 nM TG, pre-treated with 20 μg/mL cycloheximide, 8 hours) was “did not cause a significant change in tau level” and the “effect on reduction of total tau level” value ([3]; SB1617 and TG with autophagy inhibitors 3-methyladenine and bafilomycin A1) was “is reduced, but does not completely diminish”. For the same molecule, the “total tau (Tau5) and phospho-tau (S199, T231) levels” value ([3]; with 80 nM thapsigargin for 20 hours) was “decreased all tau levels”.
